Measurements as given in ChEMBL document CHEMBL3885881, “DrugMatrix”.

Organism: Rattus norvegicus
Assay: DrugMatrix - Regimen: Daily Repeat
Assay type: toxicity, organism-based, Sprague-Dawley
Design: regimen Daily Repeat, gender Male, age 6-8 weeks
Conditions: in vivo, iv, vehicle 100 % SALINE; for ABSOLUTE BASOPHIL / ABSOLUTE EOSINOPHIL / ABSOLUTE LYMPHOCYTE / ABSOLUTE MONOCYTE / ABSOLUTE SEGMENTED NEUTROPHIL / BASOPHIL / EOSINOPHIL / ERYTHROCYTE COUNT / HEMATOCRIT / HEMOGLOBIN / LEUKOCYTE COUNT / LYMPHOCYTE / MEAN CORPUSCULAR HEMOGLOBIN / MEAN CORPUSCULAR HEMOGLOBIN CONCENTRATION / MEAN CORPUSCULAR VOLUME / MONOCYTE / NEUTROPHIL / NUCLEATED RED BLOOD CELLS / PLATELET COUNT: tissue Blood; for ALANINE AMINOTRANSFERASE / ALBUMIN / ALKALINE PHOSPHATASE / ASPARTATE AMINOTRANSFERASE / BLOOD UREA NITROGEN / CARBON DIOXIDE / CHLORIDE / CHOLESTEROL / CREATINE PHOSPHOKINASE / CREATININE / GLUCOSE / LACTATE DEHYDROGENASE / LIPASE / PHOSPHORUS / POTASSIUM / SODIUM / TOTAL BILIRUBIN / TOTAL PROTEIN / URIC ACID: tissue Plasma
[1] = 0.5 mg/kg, 72 h, dose level Low, time 3 day
[2] = 0.5 mg/kg, 120 h, dose level Low, time 5 day
[3] = […], 72 h, dose 2.5 mg/Kg, dose level High, time 3 day
[4] = […], 120 h, dose 2.5 mg/Kg, dose level High, time 5 day

## CC[N+](CC)(CC)CCOc1cccc(OCC[N+](CC)(CC)CC)c1OCC[N+](CC)(CC)CC.[I-].[I-].[I-] [GALLAMINE TRIETHIODIDE]
[1]
  ABSOLUTE BASOPHIL: 0 CELLS/uL
  ABSOLUTE EOSINOPHIL: 0 CELLS/uL
  ABSOLUTE LYMPHOCYTE: 12252.67 CELLS/uL
  ABSOLUTE MONOCYTE: 379 CELLS/uL
  ABSOLUTE SEGMENTED NEUTROPHIL: 1435 CELLS/uL
  BASOPHIL: 0%
  EOSINOPHIL: 0%
  ERYTHROCYTE COUNT: 5.22 x10E6/uL
  HEMATOCRIT: 33.63%
  HEMOGLOBIN: 13.53 G/DL
  LEUKOCYTE COUNT: 14.07 x10E3/uL
  LYMPHOCYTE: 87%
  MEAN CORPUSCULAR HEMOGLOBIN: 25.93 pg
  MEAN CORPUSCULAR HEMOGLOBIN CONCENTRATION: 40.3 G/DL
  MEAN CORPUSCULAR VOLUME: 64.4 fL
  MONOCYTE: 2.67%
  NEUTROPHIL: 10.33%
  NUCLEATED RED BLOOD CELLS: 0.33 /100WBC
  PLATELET COUNT: 1175 x10E3/uL
  ALANINE AMINOTRANSFERASE: 52 u/L
  ALBUMIN: 4.07 G/DL
  ALKALINE PHOSPHATASE: 372 u/L
  ASPARTATE AMINOTRANSFERASE: 79.33 u/L
  BLOOD UREA NITROGEN: 15.33 mg/dL
  CARBON DIOXIDE: 23.33 mmol/L
  CHLORIDE: 104.33 MEQ/L
  CHOLESTEROL: 71.33 mg/dL
  CREATINE PHOSPHOKINASE: 361.33 u/L
  CREATININE: 0.14 mg/dL
  GLUCOSE: 161.67 mg/dL
  LACTATE DEHYDROGENASE: 163 u/L
  LIPASE: 9 u/L
  PHOSPHORUS: 13.97 mg/dL
  POTASSIUM: 6.65 MEQ/L
  SODIUM: 146.57 MEQ/L
  TOTAL BILIRUBIN: 0.2 mg/dL
  TOTAL PROTEIN: 5.67 G/DL
  URIC ACID: 1.4 mg/dL
[2]
  ABSOLUTE BASOPHIL: 0 CELLS/uL
  ABSOLUTE EOSINOPHIL: 43 CELLS/uL
  ABSOLUTE LYMPHOCYTE: 13831.33 CELLS/uL
  ABSOLUTE MONOCYTE: 112.67 CELLS/uL
  ABSOLUTE SEGMENTED NEUTROPHIL: 1346.33 CELLS/uL
  BASOPHIL: 0%
  EOSINOPHIL: 0.33%
  ERYTHROCYTE COUNT: 5.96 x10E6/uL
  HEMATOCRIT: 37.33%
  HEMOGLOBIN: 14.57 G/DL
  LEUKOCYTE COUNT: 15.33 x10E3/uL
  LYMPHOCYTE: 90.33%
  MEAN CORPUSCULAR HEMOGLOBIN: 24.5 pg
  MEAN CORPUSCULAR HEMOGLOBIN CONCENTRATION: 39.03 G/DL
  MEAN CORPUSCULAR VOLUME: 62.7 fL
  MONOCYTE: 0.67%
  NEUTROPHIL: 8.67%
  NUCLEATED RED BLOOD CELLS: 0.33 /100WBC
  PLATELET COUNT: 1517.33 x10E3/uL
  ALANINE AMINOTRANSFERASE: 52.33 u/L
  ALBUMIN: 4.17 G/DL
  ALKALINE PHOSPHATASE: 369.67 u/L
  ASPARTATE AMINOTRANSFERASE: 80.67 u/L
  BLOOD UREA NITROGEN: 15.67 mg/dL
  CARBON DIOXIDE: 22 mmol/L
  CHLORIDE: 104 MEQ/L
  CHOLESTEROL: 61.67 mg/dL
  CREATINE PHOSPHOKINASE: 215 u/L
  CREATININE: 0.26 mg/dL
  GLUCOSE: 161 mg/dL
  LACTATE DEHYDROGENASE: 282 u/L
  LIPASE: 10 u/L
  PHOSPHORUS: 14.53 mg/dL
  POTASSIUM: 7.06 MEQ/L
  SODIUM: 146.97 MEQ/L
  TOTAL BILIRUBIN: 0.2 mg/dL
  TOTAL PROTEIN: 5.93 G/DL
  URIC ACID: 1.57 mg/dL
[3]
  ABSOLUTE BASOPHIL: 0 CELLS/uL
  ABSOLUTE EOSINOPHIL: 0 CELLS/uL
  ABSOLUTE LYMPHOCYTE: 15571.67 CELLS/uL
  ABSOLUTE MONOCYTE: 0 CELLS/uL
  ABSOLUTE SEGMENTED NEUTROPHIL: 1428.33 CELLS/uL
  BASOPHIL: 0%
  EOSINOPHIL: 0%
  ERYTHROCYTE COUNT: 5.32 x10E6/uL
  HEMATOCRIT: 34.57%
  HEMOGLOBIN: 13.83 G/DL
  LEUKOCYTE COUNT: 17 x10E3/uL
  LYMPHOCYTE: 91.67%
  MEAN CORPUSCULAR HEMOGLOBIN: 25.97 pg
  MEAN CORPUSCULAR HEMOGLOBIN CONCENTRATION: 40 G/DL
  MEAN CORPUSCULAR VOLUME: 64.93 fL
  MONOCYTE: 0%
  NEUTROPHIL: 8.33%
  NUCLEATED RED BLOOD CELLS: 1 /100WBC
  PLATELET COUNT: 1293 x10E3/uL
  ALANINE AMINOTRANSFERASE: 50 u/L
  ALBUMIN: 4.23 G/DL
  ALKALINE PHOSPHATASE: 314.67 u/L
  ASPARTATE AMINOTRANSFERASE: 74 u/L
  BLOOD UREA NITROGEN: 15.67 mg/dL
  CARBON DIOXIDE: 22.33 mmol/L
  CHLORIDE: 104.33 MEQ/L
  CHOLESTEROL: 65.67 mg/dL
  CREATINE PHOSPHOKINASE: 204 u/L
  CREATININE: 0.27 mg/dL
  GLUCOSE: 155 mg/dL
  LACTATE DEHYDROGENASE: 158 u/L
  LIPASE: 11.33 u/L
  PHOSPHORUS: 12.97 mg/dL
  POTASSIUM: 6.92 MEQ/L
  SODIUM: 147.33 MEQ/L
  TOTAL BILIRUBIN: 0.17 mg/dL
  TOTAL PROTEIN: 6 G/DL
  URIC ACID: 1.53 mg/dL
[4]
  ABSOLUTE BASOPHIL: 0 CELLS/uL
  ABSOLUTE EOSINOPHIL: 0 CELLS/uL
  ABSOLUTE LYMPHOCYTE: 13793.67 CELLS/uL
  ABSOLUTE MONOCYTE: 142.67 CELLS/uL
  ABSOLUTE SEGMENTED NEUTROPHIL: 830.33 CELLS/uL
  BASOPHIL: 0%
  EOSINOPHIL: 0%
  ERYTHROCYTE COUNT: 5.65 x10E6/uL
  HEMATOCRIT: 35.97%
  HEMOGLOBIN: 14.53 G/DL
  LEUKOCYTE COUNT: 14.77 x10E3/uL
  LYMPHOCYTE: 93.33%
  MEAN CORPUSCULAR HEMOGLOBIN: 25.73 pg
  MEAN CORPUSCULAR HEMOGLOBIN CONCENTRATION: 40.4 G/DL
  MEAN CORPUSCULAR VOLUME: 63.63 fL
  MONOCYTE: 1%
  NEUTROPHIL: 5.67%
  NUCLEATED RED BLOOD CELLS: 0.33 /100WBC
  PLATELET COUNT: 1259.67 x10E3/uL
  ALANINE AMINOTRANSFERASE: 54 u/L
  ALBUMIN: 4.23 G/DL
  ALKALINE PHOSPHATASE: 276.67 u/L
  ASPARTATE AMINOTRANSFERASE: 81.33 u/L
  BLOOD UREA NITROGEN: 15.67 mg/dL
  CARBON DIOXIDE: 21.33 mmol/L
  CHLORIDE: 105 MEQ/L
  CHOLESTEROL: 56.33 mg/dL
  CREATINE PHOSPHOKINASE: 248 u/L
  CREATININE: 0.19 mg/dL
  GLUCOSE: 147 mg/dL
  LACTATE DEHYDROGENASE: 275.33 u/L
  LIPASE: 10 u/L
  PHOSPHORUS: 12.67 mg/dL
  POTASSIUM: 6.58 MEQ/L
  SODIUM: 146.13 MEQ/L
  TOTAL BILIRUBIN: 0.2 mg/dL
  TOTAL PROTEIN: 6.13 G/DL
  URIC ACID: 1.47 mg/dL
